One experiment has as its system PAF biosynthesis. Kind of experiment: PAF biosynthesis inhibition (rat spleen microsomes, [3H]acetyl CoA / lyso PAF). The format is biochemical. The conditions noted are these: 10 μM, incubation 5-8 minutes. The protocol:
(1) Product PAF was estimated after reaction by liquid scintillation counting of the dried chloroform phase.
(2) [^3 H]Acetyl Co A was used in place of [^14 C],
(3) Incubation (i.e., reaction) times were generally within the range of 5-8 minutes.
(4) Concentrations used were in 1 ml of reaction mixture as follows:
Rat spleen microisomes: 50-150 μg

The test system of the next experiment is rabbit platlets. In words: aggregation of rabbit platelets (AC50). The conditions noted are these: Oryctolagus cuniculus, Platelet, 50% aggregation, only compounds structurally similar to PAF, read-out: AC50 (concentration of the test compound to obtain 50% aggregation of rabbit platlets). The format is cell-based. The source says:
The results obtained and the compounds tested are set forth in Table I below wherein "% I" represents percent inhibition and "AC50 " represents the concentration of the test compound to obtain 50% aggregation of rabbit platlets. The AC50 results were obtained only for those compounds which are structurally similar to PAF.

Here are results for twelve compounds from patent publication US4761404A, “Phospholipid analogs useful as PAF synthesis inhibitors” (Merck & Co., Inc., priority 1985, dated 1988).

As for “3-Hexadecylsulfonaminopropyl-1-phosphorylcholine [Example 51]”, the “% I (percent inhibition), PAF biosynthesis inhibition” value (“% I (percent inhibition)” for short) in the experiment with PAF biosynthesis turned out to be 34%.

With “3-Octadecylaminocarbonylaminopropyl-1-phosphorylcholine [Example 52]”, the “% I (percent inhibition)” value in the experiment with PAF biosynthesis amounted to 74%.

Regarding “3-Tetradecycloxycarbonylaminopropyl-2-phosphorylcholine [Example 50]”, the “% I (percent inhibition)” value in the experiment on PAF biosynthesis came to 65%.

On to `CCCCCCCCCCCCCCCCOCC(C)(O)COP(=O)([O-])OCC[N+](C)(C)C` (stereo not drawn) [Example 12, 3-O-Hexadecyl-2-methylglycero-1-phosphorylcholine], for which the AC50 with rabbit platlets is above 100000 nM.

As for `C=C(COCCCCCCCCCCCCCCCC)COP(=O)([O-])OCC[N+](C)(C)C` [Example 13, 2-Hexadecyloxymethyl-2-propene-1-phosphorylcholine], the AC50 with rabbit platlets came to 1300 nM. For the same compound, the “% I (percent inhibition)” value with PAF biosynthesis turned out to be 38%.

In the case of `CCCCCCCCCCCCCCCCOCC(COC(C)=O)COP(=O)([O-])OCC[N+](C)(C)C` (stereo not drawn) [Example 14, 2-Acetoxymethyl-2-deoxy-3-O-hexadecylglycero-1-phosphocholine], the AC50 in the experiment with rabbit platlets was determined as 340 nM. For the same compound, the “% I (percent inhibition)” value with PAF biosynthesis came to 36%.

Regarding `CCCCCCCCCCCCCCCCOCC(O)(COC(C)=O)COP(=O)([O-])OCC[N+](C)(C)C` (stereo not drawn) [Example 15, 2-Acetoxymethyl-3-O-hexadecylglycero-1-phosphocholine], the AC50 in the experiment with rabbit platlets came to 70 nM. Besides, the “% I (percent inhibition)” value in the experiment on PAF biosynthesis amounted to 71%.

Regarding `CCCCCCCCCCCCCCCCOCC(CF)COP(=O)([O-])OCC[N+](C)(C)C` (stereo not drawn) [Example 16, 2-Deoxy-2-fluoromethyl-3-0-hexadecylglycero-1-phosphocholine], the AC50 in the experiment on rabbit platlets was 2200 nM. Further, in the experiment with PAF biosynthesis, the “% I (percent inhibition)” value came out at 30%.

`CCCCCCCCCCCCCCCCOCC(CO)COP(=O)([O-])OCC[N+](C)(C)C` (stereo not drawn) [Example 17, 2-Hydroxymethyl-2-deoxy-3-O-hexadecylglycero-1-phosphocholine]: the AC50 in the experiment on rabbit platlets stood at 24000 nM. In addition, in the experiment on PAF biosynthesis, the “% I (percent inhibition)” value is 20%.

As to `CCCCCCCCCCCCCCCCOCC(O)(CO)COP(=O)([O-])OCC[N+](C)(C)C` (stereo not drawn) [Example 18, 2-Hydroxymethyl-3-O-hexadecylglycero-1-phosphocholine], the AC50 with rabbit platlets was 38000 nM. Besides, in the experiment with PAF biosynthesis, the “% I (percent inhibition)” value is 82%.

For “Sodium 2-(2-N-hexadecanoylaminoethyl)-2'-(2 -methylcarbonylaminoethyl)phosphate [Example 46]”, the “% I (percent inhibition)” value in the experiment with PAF biosynthesis worked out at 90%.

As to “Sodium 2-(2-N-hexadecanoylaminoethyl)-2'-(2-methylsulfinylethyl)phosphate [Example 53]”, the “% I (percent inhibition)” value in the experiment on PAF biosynthesis was 71%.
